Test results: paper PMC9229798, “Antioxidant Activity and Cytotoxicity of Aromatic Oligosulfides” (Molecules, 2022)

What was measured:
A-549 = test: Annexin V/Dead Cell assay; assay type: cell-based, human; settings: A-549, 2 × IC50, 48 h
Excerpt: (§1) Apoptosis or programmed cell death is an important and active regulatory pathway of cell growth and proliferation. Cells respond to specific induction signals by initiating intracellular processes that result in characteristic physiological changes. Among these are externalization of phosphatidylserine (PS) to the cell surface, cleavage and degradation of specific cellular proteins, compaction and fragmentation of nuclear chromatin, and loss of membrane integrity. Phosphatidylserine (PS) is normally located in the inner part of the cell membrane. In the initial stage of apoptosis, the PS residues which translocated to the extracellular are detected by Annexin V, which is a calcium-dependent phospholipid-binding protein with a high affinity for PS. Annexin V flow cytometric assay was used to evaluate the compounds’ ability to induce apoptosis and influence on cell death. HCT-116 colon carcinoma and A-549 lung adenocarcinoma cells were treated by disulfides 2 and 3.
(§2) HCT-116 (colon carcinoma) and A-549 (lung carcinoma) cells (1 × 10^6) were seeded in a six-well plate and were incubated for 24 h. […] After incubation, the cells were harvested by trypsinization, precipitated by centrifugation (3000 rpm), washed with PBS, recentrifuged, and the buffer was removed. DMEM was added to achieve a cell concentration of 400–1000 cells/µL. The Muse Annexin V & Dead Cell Kit reagent (100 µL) was added to the cells and […] for 20 min at room temperature in the dark. The results were recorded on a Muse Cell Analyzer flow cytometer (Merck, Rahway, NJ, USA).

HCT-116 = test: Annexin V/Dead Cell assay; assay type: cell-based, human
Excerpt: as §1, §2

[1] = parameters: method as in doi:10.3906/kim-1904-40; settings: PASS, cited from earlier work
MCF-7 = test system: MCF-7; parameters: method as in doi:10.3906/kim-1904-40; settings: CLC-Pred, cited from earlier work; for Cytotoxicity MCF-7, Pi: probability of lack of activity; for Cytotoxicity MCF-7, Pa: probability of presence of activity
[2] = parameters: method as in doi:10.3906/kim-1904-40; settings: Trolox equivalents; cited from earlier work
[3] = ferrozine–Fe2+ complex formation; cited from earlier work
[4] = parameters: method as in doi:10.3906/kim-1904-40; settings: adrenaline autoxidation in alkaline buffer; cited from earlier work
SOD = test system: SOD; parameters: method as in doi:10.3906/kim-1904-40; settings: adrenaline oxidation with biopreparation; cited from earlier work
[5] = parameters: method as in doi:10.1016/j.arabjc.2021.103068; settings: 1 mmol/L additive, 65 °C; cited from earlier work
[6] = parameters: method as in doi:10.1016/j.arabjc.2021.103068; settings: oleic acid, 1 mmol/L additive, 65 °C; cited from earlier work
[7] = parameters: method as in doi:10.1016/j.arabjc.2021.103068; settings: all stages of LPO; cited from earlier work
[8] = parameters: method as in doi:10.1016/j.arabjc.2021.103068; settings: read-out: DPPH IC50; cited from earlier work
[9] = probability of lack of activity
[10] = probability of presence of activity

Row | Compound | Early Apop. (A-549) [%] | total apoptotic cells (A-549) [%] | Antidote, Pi [1, 9] | Free radical scavenger, Pi [1, 9] | Nitric oxide scavenger, Pi [1, 9] | Oxygen scavenger, Pi [1, 9] | Antidote, Pa [1, 10] | Free radical scavenger, Pa [1, 10] | Nitric oxide scavenger, Pa [1, 10] | Oxygen scavenger, Pa [1, 10] | Cytotoxicity MCF-7, Pi (MCF-7) | Cytotoxicity MCF-7, Pa (MCF-7) | TEAC CUPRAC [2] | FIC, % of Inhibition [3] [%] | Antiradical Activity, % Inhibition [4] [%] | SOD Activity of Liver Sturgeon, % Inhibition (SOD) [%] | LOOH, k0/k1 (relative rate constant of LOOH formation) [5] | TBARS, % Inhibition [6] [%] | anti-/prooxidant effect in liver LPO [7] | further results
1 | c1ccc(SSSc2ccccc2)cc1 [Compound 1, diphenyl trisulfide] | – | – | – | – | – | – | – | – | – | – | – | – | – | – | – | – | – | – | – | melting point: 58 to 60 °C
2 | COc1ccccc1SSc1ccccc1OC [Compound 2, bis(2-methoxyphenyl) disulfide] | 24.0 | 25.2 | – | – | – | – | – | – | – | – | – | – | – | – | – | – | – | – | – | –
3 | COc1ccc(SSc2ccc(OC)c(OC)c2)cc1OC [Compound 3, bis(3,4-dimethoxyphenyl) disulfide] | 38.2 | 42.6 | – | – | – | – | – | – | – | – | – | – | – | – | – | – | – | – | – | Early Apop. (HCT-116; HCT-116, 2 × IC50, 24 h): 9.1%; Late Apop./Dead (HCT-116; HCT-116, 2 × IC50, 24 h): 2.7%; total apoptotic cells (HCT-116; HCT-116, 2 × IC50, 24 h): 11.8%; Late Apop./Dead (HCT-116; HCT-116, 2 × IC50, 48 h): 17.7%; total apoptotic cells (HCT-116; HCT-116, 2 × IC50, 48 h): 44%
4 | c1ccc(SSc2ccccc2)cc1 [Compound 5, diphenyl disulfide] | – | – | 0.078 | 0.056 | 0.013 | 0.018 | 0.228 | 0.230 | 0.274 | 0.621 | 0.005 | 0.882 | 0.10 ± 0.01 | 73.7 ± 2.1 | 56 ± 2.9 | 61 ± 4.8 | 0.79 ± 0.11 | 24.6 ± 0.29 | prolonged prooxidant activity | –
5 | CC(C)(C)c1cc(SSc2cc(C(C)(C)C)c(O)c(C(C)(C)C)c2)cc(C(C)(C)C)c1O [Compound 6, bis(3,5-di-tert-butyl-4-hydroxyphenyl) disulfide] | – | – | 0.027 | 0.012 | 0.012 | 0.044 | 0.317 | 0.473 | 0.278 | 0.519 | 0.082 | 0.403 | 2.04 ± 0.05 | 28.9 ± 1.3 | 37 ± 4.8 | 85 ± 3.0 | 0.49 ± 0.05 | 73.1 ± 1.30 | pronounced antioxidant effect | Antioxidant, Pi [1, 9]: 0.005; Antioxidant, Pa [1, 10]: 0.549; IC50 [8]: 20.09 ± 0.02 µM
